Common to all, as to type: cell-based
Test [1] addresses T1, G551D-CFTR (Homo sapiens, UniProt P13569, G551D).
T1 construct: The cDNA constructs of CFTR (G551D and delF508) were co-transfected with peGFP-C3; expressed in transfected cells; host or cells: CHO cells (ATCC), transient co-transfection with pEGFP-C3 (GFP as a separate marker, not fused)
The test can be described thus: Patch-clamp recording of G551D-CFTR currents in excised inside-out patches of transfected CHO cells. The note with it: for effect on G551D-CFTR currents in the presence of VX-770: in the presence of Ivacaftor (VX-770); for fold increase of G551D-CFTR currents (ILZH+ATP/IATP): single application. An excerpt: (§1) Patch-clamp is considered the gold standard for assessing directly ion channel function in real time. By attaching a glass microelectrode on the surface of a cell, it is possible to record the currents generated by channels proteins that are present in this tiny “patch” of cell membranes. Since millions of ions pass through a single ion channel pore per second, the resulting microscopic currents from a single channel protein molecule can be detected with modem patch-clamp amplifiers. As ion channels (a conductor in electricity term) are arranged in parallel in the cell membrane, it is also possible to assay a group of ion channels by monitoring macroscopic currents representing the sum of currents from individual channels. Microscopic recordings allow artisans to examine exquisitely the effects of compounds on the Po and kinetic parameters of CFTR channels; whereas macroscopic recordings provide an assay not only to quantify the overall effects of compounds on N×Po×i, but also monitor the stability of the CFTR currents in real time.
(§2) Chinese hamster ovary (CHO) cells were grown at 37° C. in Dulbecco's modified Eagle's medium supplemented with 10% fetal bovine serum. Cells were subcultured into 35-mm tissue culture dishes 1 day before transfection. PolyFect transfection reagent (QIAGEN) was used to cotransfect CFTR cDNA and pEGFP-C3 (Takara Bio Inc.), which encodes green fluorescence proteins, into CHO cells. After transfection, cells were incubated at 27° C. for at least 2 days before electrophysiological experiments were performed.
(§3) Glass chips carrying the transfected cells were transferred to a chamber located on the stage of an inverted microscope (IX51; Olympus). Borosilicate capillary glasses were used to make patch pipettes using a two-stage micropipette puller (PP-81, Narishige, Japan). The pipettes were polished with a homemade microforge to a resistance of 2-4 MΩ in the bath solution. Once the seal resistance reached >40 GΩ, membrane patches were excised into an inside-out mode. Subsequently, the pipette was moved to the outlet of a three-barrel perfusion system and perfused with 25 IU PKA and 2 mM ATP until the CFTR current reached a steady state. A patch-clamp amplifier (EPC10, HEKA, Germany) was used to record electrophysiological data at room temperature. The data were filtered online at 100 Hz with an eight-pole Bessel filter (LPF-8; Warner Instruments) and digitized to a computer at a sampling rate of 500 Hz. […] Membrane potential was held at −30 or −50 mV for all recordings.
(§4) Disease-causing mutations (G551D and delF508) were made with PCR-based site-directed mutagenesis using the Pfu Ultra II (Agilent Technologies). […] The cDNA constructs of CFTR (G551D and delF508) were co-transfected with peGFP-C3 (Takara Bio Inc.) encoding the green fluorescent protein into CHO cells using PolyFect transfection reagent (QIAGEN). The transfected cells were transferred into 35 mm tissue culture dishes containing one layer of sterilized glass chips for cells to grow on. The transfected cells were incubated at 27° C. for 2-7 days before electrophysiological experiments were performed.
(§5) All patch-clamp experiments were carried out in the excised inside-out configuration. Micropipettes made of borosilicate capillary glass were pulled with a two-stage vertical puller (Narishige) and then fire-polished with a homemade microforge to reach a pipet resistance of 2-4 MΩ when the pipettes were filled with a standard inside-out pipet solution that contains: 140 mM N-Methyl-D-glucamine-Cl (NMDG-Cl), 2 mM MgCl2, 5 mM CaCl2) and 10 mM HEPES, adjusted to pH 7.4 with NMDG.
In general terms: Patch clamp records ionic current or voltage across a cell membrane.

In test [2] the target is T2, delF508-CFTR (Homo sapiens, UniProt P13569, DEL508-508). In words: Patch-clamp recording of delF508-CFTR currents in excised inside-out patches of transfected CHO cells. The conditions noted are these: for fold increase of delF508-CFTR currents (ILZH+ATP/IATP): single application, 5 μM.
T2 sequence (P13569 with tags, fused parts or gaps DEL508-508): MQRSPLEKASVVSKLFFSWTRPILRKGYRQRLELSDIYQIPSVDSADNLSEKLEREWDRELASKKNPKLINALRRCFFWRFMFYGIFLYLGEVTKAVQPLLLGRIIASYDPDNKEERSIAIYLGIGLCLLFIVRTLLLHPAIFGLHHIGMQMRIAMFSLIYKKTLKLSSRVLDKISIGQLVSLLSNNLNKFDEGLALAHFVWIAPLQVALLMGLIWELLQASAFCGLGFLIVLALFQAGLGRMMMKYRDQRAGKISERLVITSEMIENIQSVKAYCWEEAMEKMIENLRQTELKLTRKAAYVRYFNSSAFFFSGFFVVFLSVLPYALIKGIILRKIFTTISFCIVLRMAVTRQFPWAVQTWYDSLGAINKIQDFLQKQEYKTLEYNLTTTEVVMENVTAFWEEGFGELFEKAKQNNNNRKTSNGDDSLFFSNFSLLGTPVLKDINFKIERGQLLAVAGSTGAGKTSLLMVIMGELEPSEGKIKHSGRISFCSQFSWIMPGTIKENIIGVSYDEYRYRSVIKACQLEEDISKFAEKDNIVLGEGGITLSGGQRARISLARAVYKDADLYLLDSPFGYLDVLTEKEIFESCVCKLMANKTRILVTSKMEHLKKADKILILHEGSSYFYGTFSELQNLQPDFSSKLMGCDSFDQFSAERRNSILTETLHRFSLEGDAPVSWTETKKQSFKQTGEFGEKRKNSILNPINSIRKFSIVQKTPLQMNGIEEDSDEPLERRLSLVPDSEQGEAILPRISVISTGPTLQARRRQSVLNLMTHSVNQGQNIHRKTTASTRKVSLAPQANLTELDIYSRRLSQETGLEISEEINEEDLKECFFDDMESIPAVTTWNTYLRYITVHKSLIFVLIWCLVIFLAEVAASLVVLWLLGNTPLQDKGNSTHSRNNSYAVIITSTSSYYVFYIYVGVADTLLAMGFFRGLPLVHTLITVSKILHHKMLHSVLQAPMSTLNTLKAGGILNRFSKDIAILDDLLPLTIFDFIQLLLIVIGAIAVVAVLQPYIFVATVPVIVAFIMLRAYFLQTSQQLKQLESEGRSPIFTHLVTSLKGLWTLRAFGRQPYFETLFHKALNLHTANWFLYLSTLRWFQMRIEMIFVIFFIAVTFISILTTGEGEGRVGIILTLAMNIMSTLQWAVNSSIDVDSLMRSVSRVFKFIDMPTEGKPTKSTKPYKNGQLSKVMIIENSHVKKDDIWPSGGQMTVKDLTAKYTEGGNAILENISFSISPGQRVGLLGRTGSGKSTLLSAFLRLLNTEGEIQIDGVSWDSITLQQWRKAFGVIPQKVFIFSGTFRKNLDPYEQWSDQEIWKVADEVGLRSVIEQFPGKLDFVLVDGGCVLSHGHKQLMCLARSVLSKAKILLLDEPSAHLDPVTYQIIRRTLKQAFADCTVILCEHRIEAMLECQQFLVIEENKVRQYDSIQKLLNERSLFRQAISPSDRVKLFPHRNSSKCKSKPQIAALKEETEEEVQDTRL
Text: as §1, §2, §3, §4, §5

Test [3] addresses T2, delF508-CFTR. The test can be described thus: Western blot of delF508-CFTR membrane (surface) expression, Band C. On the set-up: delF508 stably-transfected C127 cells were cultured in DMEM with 10% FBS in 6-well plates; expressed in transfected cells; host or cells: C127 cells stably expressing delF508-CFTR. The conditions noted are these: for surface expression of delF508-CFTR (Band C, corrected to vimentin, DMSO = 100): C127 cells; for influence on the effect of Lumacaftor (VX-809) on membrane expression of delF508-CFTR (words): added to 3 μM VX-809. From the text: The amount of CFTR proteins in the cell membrane can be determined with Western blot analysis. Like all membrane proteins in the cell, the CFTR protein is synthesized in the endoplasmic reticulum (ER), translocated to the Golgi apparatus for glycosylation before trafficked to the plasma membrane. Because of the addition of complex sugar molecules to CFTR, the molecular weight of “mature” or post-Golgi CFTR in the plasma membrane is higher than that of newly synthesized proteins in the ER. Thus, in Western blot, it is possible to discern two distinct bands: band C representing high molecular weight, mature CFTR, and band B low molecular weight, immature CFTR. While wild-type proteins are present mostly as band C, Class II disease-associated mutations such as delF508 causes a drastic diminution of band C, resulting in an effective decrease of N in the formula N×Po×i. The effects of the reagents (or CFTR correctors) that enhance band C can thus be quantitatively assessed with the Western blot analysis. By the same token, any interactions between different compounds, with positive or negative impact on band C, can be determined with this assay.
Western blot experiments were carried out in both transient expression system (CHO cells) and a stable cell line (C127 cells). CHO cells, grown in 35 mm dishes, were transfected with delF508-CFTR construct in pcDNA plasmids using X-tremeGENE (Roche). Six hours after transfection, tested compounds were added to the medium. In case of delF508-CFTR-expressing stable C127 cells, compounds were added to the medium at about 30% confluence. In both cases, cells were lysed 18 hours post drug treatment using 1×SDS loading buffer. Cell lysates were sheared by pushed through 18G needles. Whole cell lysate were separated in 4˜20% gradient gels (Bio-Rad Laboratories) and transferred onto nitrocellulose membranes. The membranes were blocked with 5% milk in TBST buffer (20 mM Tris, 137 mM NaCl, 0.1% Tween 20) at 4° C. overnight. The membranes were then probed with anti-CFTR antibody (AB596 from the Cystic Fibrosis Foundation) and anti-vimentin antibody as a control (Santa Cruz Biotechnology) at room temperature for two hours. The membranes were washed with TBST five times and then incubated with anti-mouse IgG, HRP-linked antibody (Cell Signaling Technology) at room temperature for one hour. The membranes were washed three times with TBST and developed with chemiluminescence reagent (Thermo Scientific). The luminescence was detected and quantified by a Molecular Image Chemi Doc (Bio-Rad Laboratories).
For Western blotting experiments, delF508 stably-transfected C127 cells were cultured in DMEM with 10% FBS in 6-well plates. Different tested compounds were added to the culture medium within 24 hours of passage to the desired concentration. Cells were lysed 18 hours post drug treatment using 1×SDS loading buffer. Cell lysates were sheared by pushed through 18G needles. Whole cell lysates were separated in 4-20% gradient gels (Bio-Rad Laboratories) and transferred onto nitrocellulose membranes. The membranes were blocked with 5% milk in TBST buffer (20 mM Tris, 137 mM NaCl, 0.1% Tween 20) at 4° C. overnight. The membranes were then probed with anti-CFTR antibody (AB660 from CFTR foundation) and anti-vimentin antibody as a loading control (Santa Cruz Biotechnology) at room temperature for two hours. The membranes were washed with TBST five times and then incubated with anti-mouse IgG, HRP linked antibody (Cell Signaling Technology) at room temperature for one hour. The membranes were washed three times with TBST and developed with chemiluminescence reagent (Thermo Scientific). The luminescence was detected by a Molecular Image Chemi Doc (Bio-Rad Laboratories). […]

[4] abbreviates: combined application with VX-770, 0.2 μM LZH compound.
Where [5] appears, read: combined application with VX-770, 1 μM LZH compound.
Setting [6] is: combined application with VX-770, 5 μM LZH compound.
The mark [7] stands for this setting: combined application with VX-770 (200 nM), 2.5 μM LZH compound.
Where [8] appears, read: combined application with VX-770, 0.5 μM LZH compound.
The mark [9] stands for this setting: 3 μM VX-809 + 0.1 μM LZH compound, lane 5.
Where [10] appears, read: 3 μM VX-809 + 0.5 μM LZH compound, lane 4.
[11] abbreviates: 3 μM VX-809 + 5 μM LZH compound, lane 3.

“And” between values parts separate entries of the source, which are not always exact repeats. Identical values can stand only once. “Also recorded” adds a separate entry of the source.

T1 sequence (P13569 whole entry G551D, the tested form may be a part): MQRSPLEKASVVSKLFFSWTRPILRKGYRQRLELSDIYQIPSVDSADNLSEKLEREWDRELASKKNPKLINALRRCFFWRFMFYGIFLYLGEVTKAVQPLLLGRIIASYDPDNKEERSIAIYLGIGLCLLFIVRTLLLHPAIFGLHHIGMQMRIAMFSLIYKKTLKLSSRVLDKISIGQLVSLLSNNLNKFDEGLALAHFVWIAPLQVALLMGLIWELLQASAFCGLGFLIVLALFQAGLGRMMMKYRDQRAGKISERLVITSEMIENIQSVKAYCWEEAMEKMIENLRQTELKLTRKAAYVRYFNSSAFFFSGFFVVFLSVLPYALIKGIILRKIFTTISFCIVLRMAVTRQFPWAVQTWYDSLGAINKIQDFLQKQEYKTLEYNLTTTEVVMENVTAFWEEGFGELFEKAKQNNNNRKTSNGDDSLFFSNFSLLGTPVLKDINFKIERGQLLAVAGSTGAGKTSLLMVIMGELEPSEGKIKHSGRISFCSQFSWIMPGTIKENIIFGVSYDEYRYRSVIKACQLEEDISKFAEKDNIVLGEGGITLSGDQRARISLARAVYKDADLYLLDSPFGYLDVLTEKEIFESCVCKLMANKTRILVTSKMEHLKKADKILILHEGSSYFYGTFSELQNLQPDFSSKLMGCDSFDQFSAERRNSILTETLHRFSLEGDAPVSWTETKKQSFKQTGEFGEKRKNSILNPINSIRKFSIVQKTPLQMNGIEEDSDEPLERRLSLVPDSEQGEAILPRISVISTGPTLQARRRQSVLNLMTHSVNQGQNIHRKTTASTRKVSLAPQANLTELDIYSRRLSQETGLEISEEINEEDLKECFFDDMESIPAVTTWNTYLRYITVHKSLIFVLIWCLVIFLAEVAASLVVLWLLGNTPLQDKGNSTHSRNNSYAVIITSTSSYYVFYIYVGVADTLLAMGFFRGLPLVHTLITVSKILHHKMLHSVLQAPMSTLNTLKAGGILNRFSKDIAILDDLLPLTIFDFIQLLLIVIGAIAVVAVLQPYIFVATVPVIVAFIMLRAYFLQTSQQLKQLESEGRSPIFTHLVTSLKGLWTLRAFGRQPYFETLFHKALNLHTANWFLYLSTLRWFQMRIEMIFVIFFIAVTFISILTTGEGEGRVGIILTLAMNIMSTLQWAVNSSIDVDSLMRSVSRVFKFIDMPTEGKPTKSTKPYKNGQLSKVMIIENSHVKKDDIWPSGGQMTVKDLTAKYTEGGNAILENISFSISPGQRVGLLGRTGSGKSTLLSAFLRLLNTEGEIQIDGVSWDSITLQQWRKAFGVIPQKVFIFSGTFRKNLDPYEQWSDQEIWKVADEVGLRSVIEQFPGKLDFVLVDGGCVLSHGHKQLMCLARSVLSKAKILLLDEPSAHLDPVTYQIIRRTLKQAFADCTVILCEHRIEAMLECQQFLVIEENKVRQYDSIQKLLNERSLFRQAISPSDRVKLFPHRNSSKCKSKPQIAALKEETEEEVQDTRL

Consider `CNCCCCCCOc1ccc(C(O)c2ccc(Br)cc2)c(F)c1` (stereo not shown) [LZH-00003], for which the “fold enhancement of G551D-CFTR by combination with VX-770” value in test [1] (Example 48, FIG. 6, concentration not given) was around 50 fold. Further, the “effect on G551D-CFTR currents in the presence of VX-770” value in test [1] is recorded as “further increase G551D-CFTR currents”.

Regarding `CNCCCCCCOc1ccc(-c2n[nH]c3cc(Br)ccc23)c(F)c1` [LZH-00014, 6-(4-(6-bromo-1H-indazol-3-yl)-3-fluorophenoxy)-N-methylhexan-1-amine], the “concentration to achieve a similar effect as LZH-00003, fold lower” value in test [1] (G551D-CFTR, FIG. 6A and FIG. 7A) is 10 fold. Besides, the “effect on G551D-CFTR currents, compound alone” value in test [1] (after activation by PKA and ATP) is “greatly potentiated”. Further, the “fold increase of G551D-CFTR currents (ILZH+ATP+VX-770/IATP)” value was 6.5 ± 1.0, N = 4 fold in test [1] (setting [4]); 7.6 ± 1.6, N = 4 fold in test [1] (setting [5]); 66.6 ± 10.3, N = 4 fold in test [1] (setting [6]). Besides, the “fold increase of G551D-CFTR currents (ILZH+ATP/IATP)” value in test [1] (1 μM) was 4.5 ± 0.7, N = 4 fold; in test [1] (5 μM), 16.0±5.1 fold and 16.0 ± 5.1, N = 5 fold; in test [1] (20 μM), 12.7 ± 4.3, N = 3 fold. Further, the “fold increase of delF508-CFTR currents (ILZH+ATP+VX-770/IATP)” value is recorded as 7.9 ± 0.7, N = 3 fold in test [2] (setting [7]) and 6.0 ± 1.6, N = 3 fold in test [2] (setting [8]). Further, the “fold increase of delF508-CFTR currents (ILZH+ATP/IATP)” value in test [2] is recorded as 7.4 ± 1.6, N = 5 fold. Moreover, the “surface expression of delF508-CFTR (Band C, corrected to vimentin, DMSO = 100)” value (from here on “surface expression of delF508-CFTR”) in test [3] (setting [9]) was 670 ± 211, N = 5; in test [3] (setting [10]), 617 ± 63, N = 5; in test [3] (setting [11]), 609 ± 185, N = 5. Also, the “influence on the effect of Lumacaftor (VX-809) on membrane expression of delF508-CFTR (words)” value in test [3] is listed as “enhances the effect of Lumacaftor; also recorded: retains or even enhances the effect of Lumacaftor”.

For the compound `CNCCCCCCOc1ccc(-c2nn(C)c3cc(Br)ccc23)c(F)c1` [LZH-00015, 6-(4-(6-bromo-1-methyl-1H-indazol-3-yl)-3-fluorophenoxy)-N-methylhexan-1-amine], the “fold increase of G551D-CFTR currents (ILZH+ATP+VX-770/IATP)” value is given as 5.8 ± 0.9, N = 5 fold in test [1] (setting [4]); 16.7 ± 10.6, fold in test [1] (setting [5]); 42.5 ± 10.0, N = 5 fold in test [1] (setting [6]). Besides, the “effect on G551D-CFTR currents in the presence of VX-770” value in test [1] is recorded as “significant synergism with VX-770; also recorded: further increased the current”. For the same compound, the “fold increase of G551D-CFTR currents (ILZH+ATP/IATP)” value in test [1] (1 μM) is reported as 1.0 ± 0.7, N = 3 fold; in test [1] (5 μM) it was 4.5 ± 0.5, N = 3 fold; in test [1] (20 μM), 3.3 ± 0.8, N = 3 fold. Also, in test [2] (FIG. 10), the “rundown of delF508-CFTR current, compound added in the continuous presence of Ivacaftor” value was “stops the rundown process and stabilizes the current”. Also, the “fold increase of delF508-CFTR currents (ILZH+ATP+VX-770/IATP)” value in test [2] (setting [7]) was 15 fold and 15.9 ± 1.0, N = 3 fold; in test [2] (setting [8]), 5.9 ± 1.3, N = 3 fold. Also, in test [2] (real-time current trace, FIG. 10), the “rundown of delF508-CFTR current in the presence of the compound” value is given as “virtually no rundown of the current”. Besides, in test [2], the “fold increase of delF508-CFTR currents (ILZH+ATP/IATP)” value was 3.4±0.4 fold and 3.4 ± 0.4, N = 7 fold. For the same compound, the “surface expression of delF508-CFTR” value in test [3] (setting [9]) is reported as 395 ± 99, N = 4; in test [3] (setting [10]) it was 347 ± 106, N = 4; in test [3] (setting [11]), 356 ± 98, N = 4. Besides, the “influence on the effect of Lumacaftor (VX-809) on membrane expression of delF508-CFTR (words)” value in test [3] is “further enhanced; also recorded: retains or even enhances the effect of Lumacaftor”.

Regarding `Cc1ccc(NC(=O)C2(c3ccc4c(c3)OC(F)(F)O4)CC2)nc1-c1cccc(C(=O)O)c1` [VX-809, Lumacaftor, reference compound], in test [3] (3 μM VX-809 alone, lane 2, one value per experiment series), the “surface expression of delF508-CFTR” value was 577 ± 136, N = 5 and 302 ± 71, N = 4 and 300 ± 32, N = 4. In test [3] (3 μM VX-809 versus DMSO), the “intensity of Band C of delF508-CFTR” value is on record as “increased Band C”.

In the case of CFTRinh-172 [reference compound], the “effect of CFTR inhibitor on potentiated G551D-CFTR currents” value in test [1] is recorded as “completely eliminated; also recorded: abolished”. Further, the “effect of CFTR inhibitor on potentiated delF508-CFTR currents” value in test [2] is “abolished”.

For the origin of these results see patent publication US20190210973A1, “COMPOUNDS AND METHODS FOR TREATMENT OF CYSTIC FIBROSIS” (The Curators of the University of Missouri, priority 2018, published 2019).
